Here are results for 32 compounds from US10766890B2, “Hepatitis B core protein modulators” (Assembly Biosciences, Inc., priority 2015, dated 2020).

Data set [1] concerns HBV. The data set can be described thus: Viral load production in AD38 cells, quantitative PCR of the core sequence in supernatant. As to conditions: 10 μM compound, 6 days at 37° C., supernatant qPCR vs DMSO control; for activity at 10 µM: Hepatitis B virus, 144 h, read-out: AD38 Viral Load (%) (VL with cmpd/VL in DMSO control) at 10 μM. Type of data set: cell-based. On the procedure:
(§1) Example 63: Assay Measuring Activity of Compounds on Viral Production in and on Viability of AD38 Cells
(§2) AD38 cells were then re-suspended with 10 mL of Treatment Medium and counted. Wells of a collagen coated 96-well NUNC microtiter plate were seeded at 50,000/well in 180 μL of Treatment Medium, and 20 μL of in treatment media with either 10% DMSO (Control) or a 10× solution of compound in 10% DMSO was added. Plates were incubated for 6 days at 37° C.
Viral load production was assayed by quantitative PCR of the core sequence. […] The PCR mixture was incubated at 45° C. for 5 minutes, then 95° C. for 10 min, followed by 40 cycles of 10 seconds at 95° C. and 20 seconds at 60° C. Viral load was quantitated against known standards by using ViiA™ 7 Software. Viral load in the supernatant from wells with treated cells were compared against viral load in supernatant from DMSO control wells (≥3 per plate).
For orientation: Real-time PCR tracks product formation cycle by cycle.

Data set [2] deals with AD38 cells. Nature of the data set: Viability of AD38 cells, Promega CellTiter-Glo. The data set is classed as cell-based. As to conditions: 10 μM compound, 6 days, CellTiter-Glo luminescence, controls being 100%. On the procedure:
as §1, §2
At the end of compound treatment period cell viability was assessed using a Promega CellTiter-Glo protocol. All supernatant was removed the previously treated 96-well microtiter plate, and 50 μL Tetracycline-free treatment medium (DMEM/F12 (1:1), 1×Pen/step (cat#: 30-002-CL, Mediatech, Inc), with 2% FBS, Tet-system approved (cat#: 631106, Clontech), and 1% DMSO was added back to each well. Another 50 μL of CellTiter-Glo reagent solution (Promega, G7573) was then added at room temperature and the contents mixed for 2 minutes on an orbital shaker to induce cell lysis. This was followed by incubation at room temperature for 10 minutes to stabilize the luminescent signal. The luminescence was recorded for 0.2 seconds per well on a Tecan multimode platereader (Infinite M1000 pro). The luminescent signal from each well was normalized against that of untreated (DMSO) control wells. All results in Table 3 were reported with percent viability (with controls being 100%).
In general terms: Cellular ATP, detected with luciferase, serves as a proxy for viable cell number.

Turning to `CN(Cc1ccc(-c2ccc(O)cc2)cc1)C(=O)c1ccc2c(c1)NC(=O)c1ccccc1S2(=O)=O` [Compound 662], the activity at 10 µM in data set [1] amounted to 20.8%. The “AD38 Viability Normalized Result (cmpd/DMSO %) at 10 μM” value in data set [2] is reported as 34%.
On the same counts, the results for `O=C(NCc1ccc(-c2ccc3[nH]cnc3c2)cc1)c1ccc2c(c1)NC(=O)c1ccccc1O2` [Compound 729] are 16.3% and 97%.
On the same counts, the results for `O=C(NCc1cccc(-c2cccc(O)c2)c1)c1ccc2c(c1)NC(=O)c1ccccc1S2(=O)=O` [Compound 774] are 48.5% and 113%.
On the same counts, the results for `O=C(NCc1ccc(-c2ccc3[nH]ccc3c2)cc1)c1ccc2c(c1)NC(=O)c1ccccc1S2(=O)=O` [Compound 647] are 0.4% and 102%.
`O=C(NCc1cccc(-c2ccc(O)cc2)c1)c1ccc2c(c1)NC(=O)c1ccccc1S2(=O)=O` [Compound 773]: in data set [1], the activity at 10 µM was determined as 0.6%. For the same compound, in data set [2], the “AD38 Viability Normalized Result (cmpd/DMSO %) at 10 μM” value is given as 87%.
On the same counts, the results for `O=C(NCc1ccc(-c2ccccc2)cc1)c1ccc2c(c1)NC(=O)c1ccccc1S2(=O)=O` [Compound 563] are 0.9% and 59%.
On the same counts, the results for `O=C(NCc1ccc(-c2cccc(O)c2)cc1)c1ccc2c(c1)NC(=O)c1ccccc1O2` [Compound 720] are 48.5% and 102%.
For `COc1ccc(Oc2cccc(CNC(=O)c3ccc4c(c3)NC(=O)c3ccccc3S4(=O)=O)c2)cc1` [Compound 811-A, N-(3-(4-methoxyphenoxy)benzyl)-11-oxo-10,11-dihydrodibenzo[b,f][1,4]thiazepine-8-carboxamide 5,5-dioxide], in that order: 1.9% and 86%.
Take `O=C(NCc1ccc(-c2ccc(O)cc2)c(Cl)c1)c1ccc2c(c1)NC(=O)c1ccccc1O2` [Compound 721]: the activity at 10 µM in data set [1] amounted to 9.7%. The “AD38 Viability Normalized Result (cmpd/DMSO %) at 10 μM” value in data set [2] amounted to 29%.
For `O=C(NCc1ccc(-c2cncnc2)cc1)c1ccc2c(c1)NC(=O)c1ccccc1S2` [Compound 537], in that order: 51.5% and 100%.
For `N#Cc1cccc(-c2ccc(CNC(=O)c3ccc4c(c3)NC(=O)c3ccccc3O4)cc2)c1` [Compound 728-A], in that order: 66.8% and 120%.
On the same counts, the results for `O=C(NCCc1ccc(-c2ccc(F)cc2)cc1)c1ccc2c(c1)NC(=O)c1ccccc1S2` [Compound 538] are 8.1% and 62%.
With `O=C(NCc1ccc(-n2nccn2)cc1)c1ccc2c(c1)NC(=O)c1ccccc1S2(=O)=O` [Compound 567], the activity at 10 µM in data set [1] was found to be 3.3%. Also, the “AD38 Viability Normalized Result (cmpd/DMSO %) at 10 μM” value in data set [2] amounted to 104%.
Take `COc1ccc(Sc2cccc(CNC(=O)c3ccc4c(c3)NC(=O)c3ccccc3S4(=O)=O)c2)cc1` [Compound 813, N-(3-((4-methoxyphenyl)thio)benzyl)-11-oxo-10,11-dihydrodibenzo[b,f][1,4]thiazepine-8-carboxamide 5,5-dioxide]: the activity at 10 µM in data set [1] worked out at 1.2%. In addition, the “AD38 Viability Normalized Result (cmpd/DMSO %) at 10 μM” value in data set [2] amounted to 44%.
On the same counts, the results for `O=C(NCc1cccc(-c2ccccc2)c1)c1ccc2c(c1)NC(=O)c1ccccc1S2(=O)=O` [Compound 565] are 1.5% and 105%.
On the same counts, the results for `O=C(NCc1ccc(-c2cccc(O)c2)cc1)c1ccc2c(c1)NC(=O)c1ccccc1S2(=O)=O` [Compound 639] are 4.5% and 34%.
For `O=C(NCc1cccc(Cc2cccc(O)c2)c1)c1ccc2c(c1)NC(=O)c1ccccc1S2(=O)=O` [Compound 808, N-(3-(3-hydroxybenzyl)benzyl)-11-oxo-10,11-dihydrodibenzo[b,f][1,4]thiazepine-8-carboxamide 5,5-dioxide], in that order: 3% and 90%.
Consider `N#Cc1ccc(-c2ccc(CNC(=O)c3ccc4c(c3)NC(=O)c3ccccc3S4(=O)=O)cc2)cc1` [Compound 652-A, N-((4′-cyano-[1,1′-biphenyl]-4-yl)methyl)-11-oxo-10,11-dihydrodibenzo[b,f][1,4]thiazepine-8-carboxamide 5,5-dioxide], for which, in data set [1], the activity at 10 µM is 4.6%. The “AD38 Viability Normalized Result (cmpd/DMSO %) at 10 μM” value in data set [2] amounted to 36%.
On the same counts, the results for `CN1c2ccc(C(=O)NCCc3ccc(S(=O)(=O)N(C)C)cc3)cc2NC(=O)c2ccccc21` [Compound 498] are 13.8% and 76%.
For the compound `O=C(NCc1ccc(-c2ccc3[nH]ncc3c2)cc1)c1ccc2c(c1)NC(=O)c1ccccc1S2(=O)=O` [Compound 678], in data set [1], the activity at 10 µM is 1.4%. The “AD38 Viability Normalized Result (cmpd/DMSO %) at 10 μM” value in data set [2] is 76%.
For the compound `COc1cccc(Oc2cccc(CNC(=O)c3ccc4c(c3)NC(=O)c3ccccc3S4(=O)=O)c2)c1` [Compound 810-A, N-(3-(3-methoxyphenoxy)benzyl)-11-oxo-10,11-dihydrodibenzo[b,f][1, 4]thiazepine-8-carboxamide 5,5-dioxide], the activity at 10 µM in data set [1] turned out to be 1.1%. Also, the “AD38 Viability Normalized Result (cmpd/DMSO %) at 10 μM” value in data set [2] turned out to be 90%.
For `O=C(NCc1cccc(-c2cnn[nH]2)c1)c1ccc2c(c1)NC(=O)c1ccccc1S2(=O)=O` [Compound 570], in that order: 8.7% and 112%.
For `Cl.NCc1ccc(-c2ccc(CNC(=O)c3ccc4c(c3)NC(=O)c3ccccc3S4(=O)=O)cc2)cc1` [Compound 652, N-((4′-(aminomethyl)-[1,1′-biphenyl]-4-yl)methyl)-11-oxo-10,11-dihydrodibenzo[b,f][1,4]thiazepine-8-carboxamide 5,5-dioxide hydrochloride], the activity at 10 µM in data set [1] amounted to 36.4%. In addition, in data set [2], the “AD38 Viability Normalized Result (cmpd/DMSO %) at 10 μM” value stood at 86%.
On the same counts, the results for `O=C(NCc1ccc(-c2ccc(F)cc2)cc1)c1ccc2c(c1)NC(=O)c1ccccc1S2(=O)=O` [Compound 564] are 0.9% and 29%.
On the same counts, the results for `O=C(NCc1cccc(Cc2cccc(O)c2)c1)c1ccc2c(c1)NC(=O)c1ccccc1O2` [Compound 740] are 23.8% and 103%.
On the same counts, the results for `O=C(NCCc1ccc(-c2cnn[nH]2)cc1)c1ccc2c(c1)NC(=O)c1ccccc1S2(=O)=O` [Compound 475, N-(4-(1H-1,2,3-triazol-5-yl)phenethyl)-11-oxo-10,11-dihydrodibenzo[b,f][1,4]thiazepine-8-carboxamide 5,5-dioxide] are 0.7% and 96%.
For the compound `O=C(NCC(c1ccccc1)N1CCCC1)c1ccc2c(c1)NC(=O)c1ccccc1S2(=O)=O` (stereo not shown) [Compound 471], the activity at 10 µM in data set [1] was found to be 72.6%. Moreover, in data set [2], the “AD38 Viability Normalized Result (cmpd/DMSO %) at 10 μM” value is 103%.
Regarding `NC(=O)c1ccc(-c2ccc(CNC(=O)c3ccc4c(c3)NC(=O)c3ccccc3S4(=O)=O)cc2)cc1` [Compound 765], in data set [1], the “AD38 Viral Load (%) (VL with cmpd/VL in DMSO control) at 10 μM” value was 59.4%. For the same compound, in data set [2], the “AD38 Viability Normalized Result (cmpd/DMSO %) at 10 μM” value is given as 103%.
As for `O=C(NCc1cccc(Sc2cccc(O)c2)c1)c1ccc2c(c1)NC(=O)c1ccccc1O2` [Compound 742, N-(3-((3-hydroxyphenyl)thio)benzyl)-11-oxo-10,11-dihydrodibenzo[b,f][1,4]oxazepine-8-carboxamide], the activity at 10 µM in data set [1] was 12.7%. Also, in data set [2], the “AD38 Viability Normalized Result (cmpd/DMSO %) at 10 μM” value was found to be 89%.
For `COc1cccc(Oc2cccc(CNC(=O)c3ccc4c(c3)NC(=O)c3ccccc3O4)c2)c1` [Compound 744-A, N-(3-(3-methoxyphenoxy)benzyl)-11-oxo-10,11-dihydrodibenzo[b,f][1,4]oxazepine-8-carboxamide], in that order: 8.9% and 103%.
On the same counts, the results for `O=C(NCc1ccc(-c2ccc(O)cc2)cc1)c1ccc2c(c1)NC(=O)c1ccccc1O2` [Compound 719] are 4.6% and 110%.
On the same counts, the results for `COc1cccc(Sc2cccc(CNC(=O)c3ccc4c(c3)NC(=O)c3ccccc3S4(=O)=O)c2)c1` [Compound 812-A, N-(3-((3-methoxyphenyl)thio)benzyl)-11-oxo-10,11-dihydrodibenzo[b,f][1,4]thiazepine-8-carboxamide 5,5-dioxide] are 1.4% and 66%.
